This note sets out measurements from patent publication US8207178B2 (priority 2007, dated 2012).

For one assay, the system named is wild type HIV-1. In words: microbe, parasite or virus in culture. Format: cell-based, human immunodeficiency virus type 1 (HIV-1). The following applies: Human immunodeficiency virus 1, Hela-JC53.
In the next assay the test system is HIV-1 K103N-L100I mutant. As to the kind of experiment: microbe, parasite or virus in culture. The format is cell-based, human immunodeficiency virus type 1 (HIV-1). The settings on record: Human immunodeficiency virus 1, HeLa, read-out: EC50 mutant K103N-L100I, mutant K103N-L100I.

Each structure is given as a SMILES string.

Consider `Cc1cc(-c2ccncc2)cc(C)c1Oc1nc(Nc2ccc(C#N)cc2)nc2c1cnn2C` [Example 51, 4-(4-(2,6-Dimethyl-4-(pyridin-4-yl)phenoxy)-1-methyl-1H-pyrazolo[3,4-d]pyrimidin-6-ylamino) benzonitrile], for which the figures for the EC50 in the assay with wild type HIV-1 and in the assay with HIV-1 K103N-L100I mutant were 1 to 10 nM and greater than 10 nM, respectively.

With `COc1ccc(Cn2cnc3nc(Nc4ccc(C#N)cc4)nc(Oc4c(Cl)cc(-c5ccncc5)cc4Cl)c32)cc1` [Example 103, 4-(6-(2,6-Dichloro-4-(pyridin-4-yl)phenoxy)-7-(4-methoxybenzyl)-7H-purin-2-ylamino)benzonitrile], the EC50 in the assay with wild type HIV-1 was 1 to 10 nM; with HIV-1 K103N-L100I mutant, greater than 10 nM.

Consider `COc1ccc(Cn2cnc3nc(Nc4ccc(C#N)cc4)nc(Oc4ccc(-c5ccncc5)cc4Cl)c32)cc1` [Example 101, 4-(6-(2-Chloro-4-(pyridin-4-yl)phenoxy)-7-(4-methoxybenzyl)-7H-purin-2-ylamino)benzonitrile], for which the EC50 in the assay on wild type HIV-1 and in the assay with HIV-1 K103N-L100I mutant was greater than 10 nM throughout.

As to `Cc1cc(-c2cccc(N(C)C)c2)cc(C)c1Oc1nc(Nc2ccc(C#N)cc2)nc2ccn(C)c12` [Example 33, 4-(4-(3′-(Dimethylamino)-3,5-dimethylbiphenyl-4-yloxy)-5-methyl-5H-pyrrolo [3,2-d]pyrimidin-2-ylamino) benzonitrile], the 50% effective concentration (EC50) in the assay on wild type HIV-1 and in the assay with HIV-1 K103N-L100I mutant was greater than 10 nM throughout.

With `Cc1cc(-c2cccnc2)cc(C)c1Oc1nc(Nc2ccc(C#N)cc2)nc2ccn(C)c12` [Example 12, 4-(4-(2,6-Dimethyl-4-(pyridin-3-yl)phenoxy)-5-methyl-5H-pyrrolo[3,2-d]pyrimidin-2-ylamino)benzonitrile], the EC50 with wild type HIV-1 is 1 to 10 nM; with HIV-1 K103N-L100I mutant, greater than 10 nM.

Consider `Cc1cc(-c2ccnnc2)cc(C)c1Oc1nc(Nc2ccc(C#N)cc2)nc2ncn(C)c12` [Example 58, 4-(6-(2,6-Dimethyl-4-(pyridazin-4-yl)phenoxy)-7-methyl-7H-purin-2-ylamino)benzonitrile], for which the EC50 in the assay on wild type HIV-1 and with HIV-1 K103N-L100I mutant was 1 to 10 nM each time.

Turning to `Cc1cc(-c2ccoc2)cc(C)c1Oc1nc(Nc2ccc(C#N)cc2)nc2ccn(C)c12` [Example 13, 4-(4-(4-(Furan-3-yl)-2,6-dimethylphenoxy)-5-methyl-5H-pyrrolo[3,2-d]pyrimidin-2-ylamino)benzonitrile], the EC50 was 1 to 10 nM with wild type HIV-1 and greater than 10 nM with HIV-1 K103N-L100I mutant.

Turning to `COc1cc(-c2cc(C)c(Oc3nc(Nc4ccc(C#N)cc4)nc4ccn(C)c34)c(C)c2)ccn1` [Example 10, 4-(4-(4-(2-Methoxypyridin-4-yl)-2,6-dimethylphenoxy)-5-methyl-5H-pyrrolo[3,2-d]pyrimidin-2-ylamino) benzonitrile], the EC50 with wild type HIV-1 and in the assay on HIV-1 K103N-L100I mutant was greater than 10 nM each time.

On to `Cc1cc(-c2ccc(F)c(C#N)c2)cc(C)c1Oc1nc(Nc2ccc(C#N)cc2)nc2ccn(C)c12` [Example 63, 4′-(2-(4-cyanophenylamino)-5-methyl-5H-pyrrolo[3,2-d]pyrimidin-4-yloxy)-4-fluoro-3′,5′-dimethylbiphenyl-3-carbonitrile], for which the EC50 is less than 1 nM in the assay with wild type HIV-1 and 1 to 10 nM in the assay with HIV-1 K103N-L100I mutant.

Turning to `Cc1cc(-c2cccc(C(=O)N(C)C)c2)cc(C)c1Oc1nc(Nc2ccc(C#N)cc2)nc2ccn(C)c12` [Example 36, 4′-(2-(4-Cyanophenylamino)-5-methyl-5H-pyrrolo[3,2-d]pyrimidin-4-yloxy)-N,N,3′,5′-tetramethylbiphenyl-3-carboxamide], the figures for the 50% effective concentration (EC50) with wild type HIV-1 and in the assay with HIV-1 K103N-L100I mutant were 1 to 10 nM and greater than 10 nM, respectively.

On to `Cc1cc(-c2ccc(C(=O)N(C)C)cn2)cc(C)c1Oc1nc(Nc2ccc(C#N)cc2)nc2[nH]cnc12` [Example 128, 6-(4-(2-(4-cyanophenylamino)-9H-purin-6-yloxy)-3,5-dimethylphenyl)-N,N-dimethylnicotinamide], for which the EC50 in the assay with wild type HIV-1 was 1 to 10 nM; in the assay on HIV-1 K103N-L100I mutant, greater than 10 nM.

Regarding `N#Cc1ccc(Nc2nc(Oc3ccc(-c4ccncc4)cc3Cl)c3[nH]cnc3n2)cc1` [Example 102, 4-(6-(2-Chloro-4-(pyridin-4-yl)phenoxy)-7H-purin-2-ylamino)benzonitrile], the 50% effective concentration (EC50) with wild type HIV-1 was less than 1 nM; with HIV-1 K103N-L100I mutant, greater than 10 nM.
